Data as given in US20240217968A1, “PHARMACEUTICAL COMPOUND” (DUKE STREET BIO LIMITED, priority 2021, published 2024).

Molecular target: T1, recombinant human Flag-tagged PARP7 (amino acids 456-657) (Homo sapiens, UniProt Q7Z3E1)
T1 construct: recombinant human Flag-tagged PARP7 (amino acids 456-657)
T1 sequence (Q7Z3E1 456-657): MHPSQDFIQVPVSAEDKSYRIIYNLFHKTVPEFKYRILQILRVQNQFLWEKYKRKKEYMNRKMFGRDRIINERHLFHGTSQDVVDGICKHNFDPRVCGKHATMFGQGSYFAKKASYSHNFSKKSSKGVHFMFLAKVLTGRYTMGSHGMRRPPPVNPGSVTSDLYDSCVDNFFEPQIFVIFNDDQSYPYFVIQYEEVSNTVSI
Experiment: PARP7 biochemical DELFIA assay (auto-MARylation)
Details: DELFIA readout, IC50 class
Experimental: A suitable assay may be conducted using 10-30 nM PARP7 (amino acids 456-657), 2 μM biotin-NAD assay solution in 20 mM HEPES (pH 7.5), 100 mM NaCl, 2 mM DTT, 0.1% BSA (w/v), 0.02% Tween (v/v) assay buffer. MARylation may take place for 2-3 h at room temperature and may be detected using a dissociation-enhanced lanthanide fluorescence immunoassay (DELFIA) readout. This assay format has been recently utilised for screening for modulators of PARP7 and other MonoPARP enzymes ([…]. et al. Forced Self-Modification Assays as a Strategy to Screen MonoPARP Enzymes. SLAS Discovery. 25; 241-252, (2020)). A particularly suitable assay is described in the Examples below. Optiplate HB 384-well plates were coated with anti-FLAG antibody, supplied as a 4 mg/ml solution, using a Na2CO3/HCO3 coating buffer at pH 9.6, overnight at 4° C., in order to achieve a final immobilisation per well of 0.3 μg. Wells were then washed 3× in coating wash buffer (PBS/0.05% Tween (v/v)), blocked with 2% BSA (w/v) in coating wash buffer and washed 3 further times prior to assay. For the assay 20 μl of 12.5-37.5 nM recombinant human Flag-tagged PARP7 (amino acids 456-657) was added to each well of the 384-well plate for 30 min at room temperature. 50 nl of test compound in DMSO was added using pintool technology and plates were incubated for a further 30 min at room temperature. 5 μl of 15 μM biotin-NAD^+ assay solution in 20 mM HEPES (pH 7.5), 100 mM NaCl, 2 mM DTT, 0.1% BSA (w/v), 0.02% Tween (v/v) assay buffer was then added and MARylation proceeded for 2-3 h at room temperature prior to the addition of 5 μl of 12 mM NAD^+ quenching solution. After 30 min at room temperature, assay solution was removed and following washing 5 times, 100 μl of a 1:1000 dilution of DELFIA Eu-N1 Streptavidin reagent was added. Plates were then incubated for 30 min at room temperature. Reaction mixture was removed and plates washed 5 times prior to the addition of 25 μl DELFIA enhancement solution. Following incubation for 30 min at room temperature, fluorescence was read on either an Envision or Pherastar FS (Ex337 nm, Em620 nm).

SMILES | IC50
CC(COCC(=O)N1CCN(c2ncc(C(F)(F)F)cn2)CC1)Oc1cccc2c(=O)[nH]ncc12 (racemic) [Compound 33, 5-((1-(2-oxo-2-(4-(5-(trifluoromethyl)pyrimidin-2-yl)piperazin-1-yl)ethoxy)propan-2-yl)oxy)phthalazin-1(2H)-one] | 100 to 1000 nM
CC1Cc2c(cn[nH]c2=O)N(CCOCCC(=O)N2CCN(c3ncc(C(F)(F)F)cn3)CC2)C1 (single isomer, unassigned) [Compound 64, 3-methyl-1-(2-(3-oxo-3-(4-(5-(trifluoromethyl)pyrimidin-2-yl)piperazin-1-yl)propoxy)ethyl)-2,3,4,6-tetrahydropyrido[2,3-d]pyridazin-5(1H)-one] | ≤ 100 nM
CC1Cc2c(cn[nH]c2=O)N(CCOCCC(=O)N2CCN(c3ncc(C(F)(F)F)cn3)CC2)C1 (single isomer, unassigned) [Compound 65, 3-methyl-1-(2-(3-oxo-3-(4-(5-(trifluoromethyl)pyrimidin-2-yl)piperazin-1-yl)propoxy)ethyl)-2,3,4,6-tetrahydropyrido[2,3-d]pyridazin-5(1H)-one] | ≤ 100 nM
CC(COCCC(=O)N1CCN(c2ccc(C#N)cn2)CC1)c1cccc2c(=O)[nH]ncc12 (single isomer, unassigned) [Compound 71] | ≤ 100 nM
CC(COCCC(=O)N1CCN(c2ncc(C(F)(F)F)cn2)CC1)c1cccc2c(=O)[nH]ncc12 (single isomer, unassigned) [Compound 72, 5-(1-(3-oxo-3-(4-(5-(trifluoromethyl)pyrimidin-2-yl)piperazin-1-yl)propoxy)propan-2-yl)phthalazin-1(2H)-one] | 1000 to 10000 nM
CC(COCCC(=O)N1CCN(c2ncc(C(F)(F)F)cn2)CC1)c1cccc2c(=O)[nH]ncc12 (single isomer, unassigned) [Compound 73, 5-(1-(3-oxo-3-(4-(5-(trifluoromethyl)pyrimidin-2-yl)piperazin-1-yl)propoxy)propan-2-yl)phthalazin-1(2H)-one] | ≤ 100 nM
CC1CN(c2ccc(C#N)cn2)CCN1C(=O)CCOCCc1cccc2c(=O)[nH]ncc12 (single isomer, unassigned) [Compound 86] | ≤ 100 nM
CC(OCCCC(=O)N1CCN(c2ncc(C(F)(F)F)cn2)CC1)c1cccc2c(=O)[nH]ncc12 (single isomer, unassigned) [Compound 122] | ≤ 100 nM
CC(OCCCC(=O)N1CCN(c2ncc(C(F)(F)F)cn2)CC1)c1cc(F)cc2c(=O)[nH]ncc12 (single isomer, unassigned) [Compound 130] | ≤ 100 nM
O=C(CCOCCc1cccc2c(=O)[nH]ncc12)N1CCN(c2ncc(C(F)(F)F)cn2)C(CO)C1 (single isomer, unassigned) [Compound 149] | ≤ 100 nM
CC(OCCCC(=O)N1CCN(c2ncc(C(F)(F)F)cn2)CC1)c1cc(Cl)cc2c(=O)[nH]ncc12 (single isomer, unassigned) [Compound 174, 7-chloro-5-(1-(4-oxo-4-(4-(5-(trifluoromethyl)pyrimidin-2-yl)piperazin-1-yl)butoxy)ethyl)phthalazin-1(2H)-one] | ≤ 100 nM
CC(OCCCC(=O)N1CCN(c2ncc(C(F)(F)F)cn2)CC1)c1cc(Cl)cc2c(=O)[nH]ncc12 (single isomer, unassigned) [Compound 175, 7-chloro-5-(1-(4-oxo-4-(4-(5-(trifluoromethyl)pyrimidin-2-yl)piperazin-1-yl)butoxy)ethyl)phthalazin-1(2H)-one] | ≤ 100 nM
CC1CN(C(=O)CCOCCn2nc(C(F)(F)F)c3c(=O)[nH]ncc32)CCN1c1ncc(C(F)(F)F)cn1 (single isomer, unassigned) [Compound 187] | ≤ 100 nM
CC1CN(C(=O)CCOCCn2nc(C(F)(F)F)c3c(=O)[nH]ncc32)CCN1c1ncc(C(F)(F)F)cn1 (single isomer, unassigned) [Compound 188] | ≤ 100 nM
CC(COCCC(=O)N1CCN(c2ccc(C#N)cn2)CC1)n1ncc2c(=O)[nH]ncc21 (single isomer, unassigned) [Compound 189] | ≤ 100 nM
CC(COCCC(=O)N1CCN(c2ccc(C#N)cn2)CC1)n1ncc2c(=O)[nH]ncc21 (single isomer, unassigned) [Compound 190] | 100 to 1000 nM
CCC(OCCCC(=O)N1CCN(c2ncc(C(F)(F)F)cn2)CC1)c1cccc2c(=O)[nH]ncc12 (single isomer, unassigned) [Compound 210] | ≤ 100 nM
O=C(CCCOC(c1cccc2c(=O)[nH]ncc12)C(F)(F)F)N1CCN(c2ncc(C(F)(F)F)cn2)CC1 (single isomer, unassigned) [Compound 221, 5-(2,2,2-trifluoro-1-(4-oxo-4-(4-(5-(trifluoromethyl)pyrimidin-2-yl)piperazin-1-yl)butoxy)ethyl)phthalazin-1(2H)-one] | 100 to 1000 nM
O=C(CCCOC(c1cccc2c(=O)[nH]ncc12)C(F)(F)F)N1CCN(c2ncc(C(F)(F)F)cn2)CC1 (single isomer, unassigned) [Compound 222, 5-(2,2,2-trifluoro-1-(4-oxo-4-(4-(5-(trifluoromethyl)pyrimidin-2-yl)piperazin-1-yl)butoxy)ethyl)phthalazin-1(2H)-one] | 100 to 1000 nM

Results, then the compound that gave them:

IC50 | SMILES
≤ 100 nM | Cc1cn(C(C)COCCC(=O)N2CCN(c3ncc(C(F)(F)F)cn3)CC2)c2cn[nH]c(=O)c12 (single isomer, unassigned) [Compound 151]
≤ 100 nM | CC(COCCC(=O)N1CCN(c2ncc(C(F)(F)F)cn2)CC1)n1nc(C(F)(F)F)c2c(=O)[nH]ncc21 (single isomer, unassigned) [Compound 176, 1-(1-(3-oxo-3-(4-(5-(trifluoromethyl)pyrimidin-2-yl)piperazin-1-yl)propoxy)propan-2-yl)-3-(trifluoromethyl)-1,5-dihydro-4H-pyrazolo[3,4-d]pyridazin-4-one]
≤ 100 nM | CC(COCCC(=O)N1CCN(c2ncc(Cl)cn2)CC1)n1nc(C(F)(F)F)c2c(=O)[nH]ncc21 (single isomer, unassigned) [Compound 185]
≤ 100 nM | CC(COCCC(=O)N1CCN(c2ncc(C(F)(F)F)cn2)CC1)n1cc(C(F)(F)F)c2c(=O)[nH]ncc21 (single isomer, unassigned) [Compound 223, 1-(1-(3-oxo-3-(4-(5-(trifluoromethyl)pyrimidin-2-yl)piperazin-1-yl)propoxy)propan-2-yl)-3-(trifluoromethyl)-1,5-dihydro-4H-pyrrolo[2,3-d]pyridazin-4-one]
≤ 100 nM | CC(COCCC(=O)N1CCN(c2ncc(C(F)(F)F)cn2)CC1)n1cc(C(F)(F)F)c2c(=O)[nH]ncc21 (single isomer, unassigned) [Compound 224, 1-(1-(3-oxo-3-(4-(5-(trifluoromethyl)pyrimidin-2-yl)piperazin-1-yl)propoxy)propan-2-yl)-3-(trifluoromethyl)-1,5-dihydro-4H-pyrrolo[2,3-d]pyridazin-4-one]
≤ 100 nM | Cc1nn(C(C)COCCC(=O)N2CCN(c3ncc(C(F)(F)F)cn3)CC2)c2cn[nH]c(=O)c12 (single isomer, unassigned) [Compound 245]
≤ 100 nM | CC(COCCC(=O)N1CCN(c2ncc(F)cn2)CC1)n1nc(C(F)(F)F)c2c(=O)[nH]ncc21 (single isomer, unassigned) [Compound 248, 1-(1-(3-(4-(5-fluoropyrimidin-2-yl)piperazin-1-yl)-3-oxopropoxy)propan-2-yl)-3-(trifluoromethyl)-1,5-dihydro-4H-pyrazolo[3,4-d]pyridazin-4-one]
≤ 100 nM | CC(COCCC(=O)N1CCN(c2ncc(F)cn2)CC1)n1nc(C(F)(F)F)c2c(=O)[nH]ncc21 (single isomer, unassigned) [Compound 249, 1-(1-(3-(4-(5-fluoropyrimidin-2-yl)piperazin-1-yl)-3-oxopropoxy)propan-2-yl)-3-(trifluoromethyl)-1,5-dihydro-4H-pyrazolo[3,4-d]pyridazin-4-one]
1000 to 10000 nM | CC(COCCC(=O)N1CCN(c2nc(C#N)cs2)CC1)n1nc(C(F)(F)F)c2c(=O)[nH]ncc21 (single isomer, unassigned) [Compound 250]
≤ 100 nM | CC(COCCC(=O)N1CCN(c2ccc(OC(F)(F)F)cn2)CC1)n1nc(C(F)(F)F)c2c(=O)[nH]ncc21 (single isomer, unassigned) [Compound 253]
≤ 100 nM | CC(COCCC(=O)N1CCN(c2ccc(OC(F)(F)F)cn2)CC1)n1nc(C(F)(F)F)c2c(=O)[nH]ncc21 (single isomer, unassigned) [Compound 254]
